# Laboratory results from publication PMC5789083, “Mechanisms driving the antibacterial and antibiofilm properties of Hp1404 and its analogue peptides against multidrug-resistant Pseudomonas aeruginosa” (Scientific Reports, 2018).
# Read-outs that look alike come from different tables or passages of the source. Where no end group is shown, it is not given here.
# Key:
# HaCaT cells = assay: Cytotoxicity, MTT assay; assay type: cell-based, human; conditions: 24 h
# Protocol: We used the MTT assay to evaluate the toxicity of the peptides toward human skin epithelial cells (HaCaT) as previously described. Briefly, HaCaT cells were seeded at a density of 2 × 10^4 cells per well in 96-well microtiter plates in Dulbecco’s modified Eagle’s medium (DMEM) containing 10% foetal bovine serum (FBS) at 37 °C under 5% CO2 atmosphere. The next day, peptides were added to each well at various final concentrations (higher concentration of 200 µM). After 24 h incubation, culture supernatants were removed. 0.5 mg/mL MTT was added to each well, and the plates were incubated for 4 h at 37 °C. The medium was replaced by dimethyl sulfoxide (DMSO) to dissolve the formazan crystals formed in the wells. The absorbance at 570 nm was measured using a Versa-Max microplate ELISA reader (Molecular Devices). The viability rate was calculated using the following formula: Cell viability (%) = (absorbance of treated sample)/(absorbance of control) × 100.
# [1] = system: Pseudomonas aeruginosa and MRPA strains; assay: microbe, parasite or virus in culture; assay type: cell-based; conditions: broth micro-dilution, 37 °C, 18–24 h
# Description: Gram-negative (Pseudomonas aeruginosa ATCC 27853) bacterial strains were obtained from the ATCC (American Type Culture Collection; Manassas, VA, USA). Multidrug-resistant strains (Pseudomonas aeruginosa 138, 431, 434, 557, 559, 778, 1034, 1162, 3290, 3399, 3592, 3904, 4007, 4319, 4891, 5018, and 671973) were obtained from the Chonnam National University Hospital (Gwangju, South Korea).
# (§1) We examined the activity of each peptide against both pseudomonas aeruginosa and multidrug-resistant strains. The minimal inhibitory concentrations (MICs) of peptides were determined using the broth micro-dilution assay as described previously. Briefly, bacterial strains were cultivated with shaking overnight at 37 °C. The next day, they were diluted to a density of 2 × 10^5 CFU/mL with growth medium. Peptides were serially diluted with 10 mM sodium phosphate buffer. 50 µL bacterial aliquots were mixed with an equal volume of peptide solution, and incubated at 37 °C for 18–24 h. Inhibition of bacterial growth was determined by measuring the absorbance at 600 nm using a Versa Max microplate reader (Molecular Devices, Sunnyvale, CA, USA). The test was performed in triplicate.
# [2] = system: P. aeruginosa strains (biofilm formation); assay type: cell-based, Pseudomonas aeruginosa; conditions: 24 h, 37 °C, crystal violet OD595
# Protocol: To evaluate the ability of bacterial strains to form biofilms either in the absence or presence of peptides, antibiotic-susceptible P. aeruginosa (ATCC 27853), and various strains of MDR P. aeruginosa were cultured in nutrient broth (NB). […]. The biofilms were fixed with 100% methanol for 15 min, stained with 0.1% crystal violet (CV) for 1 h, and rinsed three times with distilled water (dH2O). After the addition of 95% ethanol, biofilm mass was quantified by measuring OD at 595 nm using a Versa-Max microplate ELISA reader (Molecular Devices). Results were expressed as the percentage of biofilm formed with respect to the control. […] All experiments were performed at least in triplicate.
# P. aeruginosa 27853 = assay type: cell-based, Pseudomonas aeruginosa
# Protocol: as §1
# The effects of various cations on the antibacterial activities of the parental and analogue peptides against P. aeruginosa 27853 were evaluated as previously described. Bacteria was treated with peptides at a final concentration 25 µM in the presence of physiological salts such as NaCl (50 mM, 100 mM, and 150 mM), CaCl2 (1.25 mM, 2.5 mM, and 5 mM), or MgCl2 (0.5 mM, 1 mM, and 2 mM). The MIC values were determined as described above.
# mouse red blood cells = assay: Hemolytic activity; assay type: cell-based; conditions: at 12.5 M (so in the source); mouse RBCs, positive control
# Protocol: The hemolytic activities of the peptides were determined as previously described. Fresh mouse red blood cells (RBCs) were washed and diluted to 8% with PBS. RBC suspension was added to 96-well plates (100 µL/well), mixed with an equal volume of serially diluted peptides, and incubated at 37 °C for 1 h with gentle shaking. The plate was centrifuged and the supernatant was transferred to a 96-well plate. The absorbance at 414 nm was measured with a Versa-Max ELISA reader (Molecular Devices). PBS and 0.1% Triton X-100 were used as negative and positive controls, respectively. The experiment was performed in triplicate. The hemolysis rate was calculated using the following formula[55]: % Hemolysis = [(Abs 414 nm in the peptide solution-Abs 414 nm in PBS)/(Abs 414 nm in 0.1% Triton X-100-Abs 414 nm in PBS)] × 100
# [3] = P. aeruginosa 138 (multidrug-resistant), triplicate
# [4] = P. aeruginosa 431 (multidrug-resistant), triplicate
# [5] = P. aeruginosa 434 (multidrug-resistant), triplicate
# [6] = P. aeruginosa 557 (multidrug-resistant), triplicate
# [7] = P. aeruginosa 559 (multidrug-resistant), triplicate
# [8] = P. aeruginosa 778 (multidrug-resistant), triplicate
# [9] = P. aeruginosa 1034 (multidrug-resistant), triplicate
# [10] = P. aeruginosa 1162 (multidrug-resistant), triplicate
# [11] = P. aeruginosa 3290 (multidrug-resistant), triplicate
# [12] = P. aeruginosa 3399 (multidrug-resistant), triplicate
# [13] = P. aeruginosa 3543 (multidrug-resistant), triplicate
# [14] = P. aeruginosa 3592 (multidrug-resistant), triplicate
# [15] = P. aeruginosa 3904 (multidrug-resistant), triplicate
# [16] = P. aeruginosa 4007 (multidrug-resistant), triplicate
# [17] = P. aeruginosa 4319 (multidrug-resistant), triplicate
# [18] = P. aeruginosa 4891 (multidrug-resistant), triplicate
# [19] = P. aeruginosa 5018 (multidrug-resistant), triplicate
# [20] = P. aeruginosa 671973 (multidrug-resistant), triplicate
# [21] = P. aeruginosa ATCC 27853, 2 × 10^5 CFU/mL, A600, triplicate
Compound,"MIC [1, 3]","MIC [1, 4]","MIC [1, 5]","MIC [1, 6]","MIC [1, 7]","MIC [1, 8]","MIC [1, 9]","MIC [1, 10]","MIC [1, 11]","MIC [1, 12]","MIC [1, 13]","MIC [1, 14]","MIC [1, 15]","MIC [1, 16]","MIC [1, 17]","MIC [1, 18]","MIC [1, 19]","MIC [1, 20]","MIC [1, 21]",further results
ILKKLLKKVKSI-NH2 [Hp1404-T1d],12.5 µM,3.13 µM,3.13 µM,3.13 µM,12.5 µM,3.13 µM,3.13 µM,1.56 µM,6.25 µM,1.56 µM,25 µM,3.13 µM,6.25 µM,6.25 µM,3.13 µM,3.13 µM,1.56 µM,1.56 µM,1.56 µM,"survival rate of HaCaT cells (HaCaT cells; 50 µM): 33%; MBIC ([2]; P. aeruginosa 434): 12.5 µM; MBIC ([2]; P. aeruginosa 559): 12.5 µM; MBIC ([2]; P. aeruginosa 778): 12.5 µM; MBIC ([2]; P. aeruginosa 1034): 12.5 µM; MBIC ([2]; P. aeruginosa 1162): 6.25 µM; MBIC ([2]; P. aeruginosa 3399): 25 µM; MBIC ([2]; P. aeruginosa 3543): >50 µM; MBIC ([2]; P. aeruginosa 4007): 50 µM; MBIC ([2]; P. aeruginosa 27853, 5 × 10^5 CFU/mL, 0.2% glucose): 12.5 µM; MIC (P. aeruginosa 27853; CaCl2 1.25 mM): 12.5 µM; MIC (P. aeruginosa 27853; CaCl2 2.5 mM): 25 µM; MIC (P. aeruginosa 27853; CaCl2 5 mM): >25 µM; MIC (P. aeruginosa 27853; MgCl2 0.5 mM): 3.13 µM; MIC (P. aeruginosa 27853; MgCl2 1 mM): 6.25 µM; MIC (P. aeruginosa 27853; MgCl2 2 mM): 12.5 µM; MIC (P. aeruginosa 27853; NaCl 50 mM): 12.5 µM; MIC (P. aeruginosa 27853; NaCl 100 mM): 12.5 µM; MIC (P. aeruginosa 27853; NaCl 150 mM): 25 µM"
"CC[C@H](C)[C@H](NC(=O)CN)C(=O)NCC(=O)N[C@@H](C)C(=O)N[C@H](C(=O)N[C@@H](CC(C)C)C(=O)N[C@@H](CCCCN)C(=O)N[C@H](C(=O)N[C@@H](CC(C)C)C(=O)N[C@H](C(=O)N[C@H](C(=O)NCC(=O)N[C@@H](CC(C)C)C(=O)N1CCC[C@H]1C(=O)N[C@@H](C)C(=O)N[C@@H](CC(C)C)C(=O)N[C@H](C(=O)N[C@@H](CO)C(=O)N[C@@H](Cc1c[nH]c2ccccc12)C(=O)N[C@H](C(=O)N[C@@H](CCCCN)C(=O)N[C@@H](CCCNC(=N)N)C(=O)N[C@@H](CCCCN)C(=O)N[C@@H](CCCNC(=N)N)C(=O)N[C@@H](CCC(N)=O)C(=O)N[C@@H](CCC(N)=O)C(N)=O)[C@@H](C)CC)[C@@H](C)CC)[C@@H](C)O)[C@@H](C)O)C(C)C)C(C)C [Melittin, reference compound]",3.13 µM,3.13 µM,3.13 µM,1.56 µM,3.13 µM,3.13 µM,1.56 µM,3.13 µM,3.13 µM,3.13 µM,3.13 µM,3.13 µM,3.13 µM,3.13 µM,3.13 µM,1.56 µM,3.13 µM,1.56 µM,3.13 µM,survival of HaCaT cells (HaCaT cells; 3.13 µM): no living cells were detected; hemolysis (mouse red blood cells): complete hemolysis
